The values that follow come from patent US20210255184A1, “Biosensor Device and Methods” (The New Zealand Institute for Plant and Food Research …, priority 2018, published 2021).

For one assay, the target named is T1, DmOr22a/Orco (Drosophila melanogaster, UniProt P81909).
T1 sequence (P81909 1-397): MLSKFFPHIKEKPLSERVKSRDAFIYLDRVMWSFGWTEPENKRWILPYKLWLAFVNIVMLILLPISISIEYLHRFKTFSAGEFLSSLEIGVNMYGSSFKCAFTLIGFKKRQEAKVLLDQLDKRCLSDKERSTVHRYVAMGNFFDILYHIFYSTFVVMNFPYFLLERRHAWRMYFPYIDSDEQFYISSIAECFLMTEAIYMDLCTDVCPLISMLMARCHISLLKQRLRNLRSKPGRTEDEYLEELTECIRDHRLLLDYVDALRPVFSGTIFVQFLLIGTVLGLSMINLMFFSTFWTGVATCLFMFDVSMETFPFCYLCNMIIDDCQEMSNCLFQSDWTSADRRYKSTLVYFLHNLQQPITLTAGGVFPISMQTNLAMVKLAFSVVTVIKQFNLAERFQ
T1 sequence (Q9VNB5 1-486 partner): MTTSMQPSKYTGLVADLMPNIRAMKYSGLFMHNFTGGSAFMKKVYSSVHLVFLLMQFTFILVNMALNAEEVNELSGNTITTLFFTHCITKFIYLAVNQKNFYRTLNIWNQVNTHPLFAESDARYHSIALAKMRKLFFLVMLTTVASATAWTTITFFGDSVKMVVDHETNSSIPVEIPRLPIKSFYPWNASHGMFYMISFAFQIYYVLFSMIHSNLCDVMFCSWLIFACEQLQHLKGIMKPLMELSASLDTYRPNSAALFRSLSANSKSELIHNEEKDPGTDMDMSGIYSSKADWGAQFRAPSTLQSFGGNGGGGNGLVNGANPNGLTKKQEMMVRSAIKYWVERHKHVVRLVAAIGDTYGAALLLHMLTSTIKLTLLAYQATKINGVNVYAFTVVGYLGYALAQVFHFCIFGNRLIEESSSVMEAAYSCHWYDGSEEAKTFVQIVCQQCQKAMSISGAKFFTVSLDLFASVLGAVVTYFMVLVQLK
Conditions: * estimated visually from graph, cited from earlier work.

In the next assay the target is T2, Or35a (Drosophila melanogaster, UniProt Q9V3Q2).
T2 construct: his-tag; made in house; host or cells: baculovirus-infected Sf9 cells
T2 sequence (Q9V3Q2 1-409): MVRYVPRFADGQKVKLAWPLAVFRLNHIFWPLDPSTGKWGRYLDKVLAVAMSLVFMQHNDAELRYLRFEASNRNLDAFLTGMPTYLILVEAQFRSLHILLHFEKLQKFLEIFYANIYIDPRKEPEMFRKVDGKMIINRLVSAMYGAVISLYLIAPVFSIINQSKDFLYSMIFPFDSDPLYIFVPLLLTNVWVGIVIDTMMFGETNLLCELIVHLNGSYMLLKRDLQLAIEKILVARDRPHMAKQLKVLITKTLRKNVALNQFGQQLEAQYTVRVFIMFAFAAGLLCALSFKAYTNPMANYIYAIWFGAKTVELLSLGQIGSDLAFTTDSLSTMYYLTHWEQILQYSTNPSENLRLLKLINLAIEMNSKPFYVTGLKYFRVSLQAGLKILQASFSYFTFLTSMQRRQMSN
The assay is described as follows: EIS sensor, Or35a liposomes on gold electrode. The format is biochemical. Conditions: EIS dose response. How it is done:
PBS (pH=7.4) was used as an electrolyte to conduct electrochemical measurements. PBS buffer was degassed for about 30 minutes prior to electrochemical measurements. Odorant solutions of concentration ranging from 1 aM to 1 μM were prepared by sequential dilution in PBS solution containing 1% DMSO. OR immobilized electrodes were incubated in relevant odorant solution for ˜30 minutes each and washed gently with PBS before EIS measurements.
EIS measurements were done in a 3 electrode cell containing Ag/AgCl (3 M NaCl, 0.209 V vs. SHE) reference electrode, coiled platinum wire as a counter electrode and the gold disk as a working electrode at a fixed voltage of −0.7 using PalmSens potentiostat. Degassed PBS was used as an electrolyte.
EIS measurements were performed on gold electrodes functionalised with OrX liposomes (either Or10a or Or22a), OrX/Orco liposomes, or empty liposomes prior to and after target ligand or control ligand incubation with increasing concentrations (1 aM to 100 μM). Dose response curves were obtained by defining sensor response as −(ΔRp/R^op) versus log[C(Ligand)]. FIG. 4a presents the EIS response in terms of Nyquist plot for the Or10a liposome functionalized sensors when exposed to a solution containing one of the known target ligands of Or10a, methyl salicylate, at various concentrations. […] The dose response curve (FIG. 4b) was obtained by plotting the change in polarization resistance −(ΔRp/R^op) versus log[conc(Ligand)], as the sensor response. Here, Rp is the polarization resistance after Or10a liposome-target interaction and R^op is the polarization resistance before Or10a liposome-target interaction.
Prior to use, 1 mg liposomes (500 μl at 2 mg/ml) were defrosted on ice and then destabilized by incubating with 0.2% CHAPS for 15 min at room temperature. […] All Or35a/Orco integrated liposomes samples were analysed by Western blot before being aliquoted and stored at −80° C. Integration of Or35a/Orco into liposomes was assessed by density gradient ultracentrifugation (DGU) using Accudenz (Accurate Chemical & Scientific Corporation, USA). […]

Where two headings read alike, the source gives them in different places.

Turning to `CCCCCC(=O)OC` [methyl hexanoate], the “Sensitivity limit (given as Log)” value at DmOr22a/Orco (ref 43) is on record as “Log = −7.5*”; at DmOr22a/Orco (ref 44), “Log = −7*”. Turning to `COC(=O)c1ccccc1O` [methyl salicylate], the “sensor response to control ligand” value on Or35a is given as “negligible response”.
